Converted amounts (≈) assume the structure as drawn.
Each compound was assayed on Escherichia coli (10536 strain) (assay: 15 second contact suspension kill assay (Example 1 protocol, also Example 3)). Details: 15 s contact.
Format: cell-based
From the text: The efficacies of antimicrobial agents can be usefully compared by determining the Minimum Biocidal Concentration (MBC). The MBC is defined as the lowest absolute concentration of the particular active that provides complete kill (zero bacterial growth). The differing behaviours of inhibitory antimicrobtals in Isolation and mixtures have been widely explored using the concept of the Fractional Concentration and Fractional Inhibitory Concentration (FIC). See for instance J R W Lambert and R Lambert, J. Appl. Microblol 95, 734 (2003); T. Jadavji. C G Prober and R Cheung. Antimicrobial Agents and Chemotherapy 26, 91 (1984), and WO 2004/006876. These parameters can be defined as follows:
[formula] [formula] By analogy the Fractional Biocidal Concentration (FBC) is given by:
Antimicrobial efficacy is tested against a representative pathogenic bacterial organism, Gram negative Escherichia coli. Concentrations of actives are expressed in terms of the percentage weight/volume (% w/v) throughout Example 1.
An overnight culture of Escherichia coli (10536 strain) was prepared in 50 ml total volume of TSB broth, grown for ca. 18 hrs at 37° C. and shaken at 150 rpm. 1 ml of this overnight E. coli culture was transferred to 50 ml of fresh TSB broth and incubated at 37° C. at 150 rpm for ca. 4 hours. This culture was separated into equal volumes and centrifuged at 4000 rpm for 15 minutes, washed with sterile saline (0.85% NaCl), centrifuged once more and re-suspended in saline to give a final concentration of 0.8 OD620 equivalent to about 10^8 cells per milliliter for this particular organism. Here, OD620 indicates the absorbance of a sample in a cuvette of 1.0 cm path length at a wavelength of 620 nm. This bacterial stock was used for assaying against antimicrobial actives (in triplicate).
The following assay describes the testing of 8 materials using 6 dilutions across half of a 96-well micro titre plate (MTP). Using this approach it is possible to assay 16 actives (without replicates) with one full dilution plate, replicating this set up in two halves of the plate columns, 1-6 and 7-12.
1M solutions of the test actives were prepared in dimethylsulphoxide (DMSO).
Aliquots (270 μl) of the materials at 1.11 times the final concentration were dispensed into the wells of the MTP along one column (A1-H1). This MTP was labelled as the “Screening plate”.
In another MTP, labelled as the “Dilution plate”, 270 μl of D/E neutralising solution from DIFCO Composition was added to column 1. The composition of the neutralising solution was as follows: pancreatic digest of casein, 5.0 g/L; Yeast Extract, 2.5 g/L; Dextrose, 10 g/L, sodium thioglycollate, 1.0 g/L, sodium thiosulphate, 6.0 g/L; sodium bisulphite, 2.5 g/L; Polysorbate 80, 5.0 g/L; lecithin 7.0 g/L; bromocresol purple, 0.02 g/L with a pH in the range 7.6±0.2.
270 μl of tryptone diluent solution was added to all the remaining wells of the Dilution MTP (columns 2-6).
Bacterial stock (30 μl) was then added to the prepared 270 μl of the solution of actives in the Screening Plate and mixed, using a multichannel pipette with 8 tips to aspirate and dispense the same volume of bacterial stock in parallel to 8 wells in rows A-H. After a contact time of 15 seconds, the mixtures were quenched by transferring 30 μl volumes of the mixtures into the 270 μl D/E neutralising solution in the prepared dilution plate, using aspiration to mix. After exactly 5 minutes in the DIE neutralising solution, 30 μl volumes were transferred from column 1 to column 2 of the Dilution MTP and mixed, before transferring further 30 μl volumes from column 2 into column 3. This process was repeated serially diluting the bacteria across the plate to column 6.
30 μl volumes from each well in the Dilution MTP were transferred onto pre-labelled segment of Tryptone Soya Agar (TSA) plates starting from the lowest bacterial concentration (highest dilution, column 6) to the highest bacterial concentration (column 1).

Row | Compound | bacterial kill (in words)
1 | CC1=CCC(C(C)(C)O)CC1 (stereo not drawn) [B, alpha-terpineol, reference compound] | not showing bacterial kill
2 | Cc1ccc(C(C)C)c(O)c1 [A, thymol, reference compound] | not showing bacterial kill

Same assay, conditions: 15 s contact; active concentrations (% w/v) as defined per example; 0 = complete kill; mean of triplicate

Row | Compound | NMBS, mean bacterial survival [log CFU/ml]
3 | CC1=CCC(C(C)(C)O)CC1 (stereo not drawn) [1:7, alpha-terpineol] | 7
4 | Oc1cccc(-c2ccccc2)c1 [3:1, 3-phenylphenol] | 4.3
5 | CCCCCc1ccc(O)cc1 [1:15, 4-n-pentylphenol] | 0
6 | C/C=C/c1ccccc1O [1:39, (E)-2-(prop-1-enyl)phenol] | 6.9
7 | CCC(C)c1ccc(O)cc1 (centres unmarked) [1:27, 4-sec-butylphenol] | 0
8 | CC1=CCC(C(C)(C)O)CC1 (stereo not drawn) [1:4, alpha-terpineol] | 0
9 | Oc1ccccc1Cc1ccccc1 [1:41, 2-benzylphenol] | 0
10 | Oc1ccc(Cc2ccccc2)cc1 [1:44, 4-benzylphenol] | 0
11 | CCC(C)c1ccc(O)cc1 (centres unmarked) [1:28, 4-sec-butylphenol] | 4.1
12 | Oc1ccc(Cc2ccccc2)cc1 [1:45, 4-benzylphenol] | 3.8
13 | CC1=CCC(C(C)(C)O)CC1 (stereo not drawn) [1:5, alpha-terpineol] | 0
14 | Oc1cccc(-c2ccccc2)c1 [3:2, 3-phenylphenol] | 7.4
15 | C/C=C/c1ccccc1O [1:38, (E)-2-(prop-1-enyl)phenol] | 0
16 | CCC(C)c1ccccc1O (centres unmarked) [1:25, 2-sec-butylphenol] | 7.5
17 | CC1=CCC(C(C)(C)O)CC1 (stereo not drawn) [1:6, alpha-terpineol] | 7
18 | CCC(C)c1ccccc1O (centres unmarked) [1:24, 2-sec-butylphenol] | 0
19 | Oc1ccc(C2CCCC2)cc1 [1:36, 4-cyclopentylphenol] | 7.1

Row | Compound | NMBS, mean bacterial survival [log CFU/ml]
20 | CC(C)(C)c1cccc(O)c1 [1:21, 3-tert-butylphenol] | 0
21 | CCC(C)c1ccc(O)cc1 (centres unmarked) [1:29, 4-sec-butylphenol] | 7.6
22 | Oc1cccc(-c2ccccc2)c1 [3:3, 3-phenylphenol] | 7.7
23 | Oc1ccccc1C1CCCC1 [1:32, 2-cyclopentylphenol] | 3.4
24 | Oc1ccccc1C1CCCC1 [1:33, 2-cyclopentylphenol] | 7.5
25 | CC(C)(C)c1cccc(O)c1 [1:22, 3-tert-butylphenol] | 7.6
26 | CCCc1ccc(O)cc1 [1:9, 4-n-propylphenol] | 7.8
27 | CC(C)(C)c1ccccc1O [1:19, 2-tert-butylphenol] | 7.5
28 | CCCc1ccc(O)cc1 [1:8, 4-n-propylphenol] | 0
29 | CCCCCc1ccc(O)cc1 [1:16, 4-pentylphenol] | 6.6
30 | CC(C)(C)c1ccccc1O [1:18, 2-tert-butylphenol] | 0
31 | CCCCc1ccc(O)cc1 [1:12, 4-n-butylphenol] | 0
32 | CCCCc1ccc(O)cc1 [1:13, 4-butylphenol] | 7.0
33 | Oc1ccc(C2CCCC2)cc1 [1:35, 4-cyclopentylphenol] | 0
34 | Oc1ccccc1C1CCCC1 [1:31, 2-cyclopentylphenol] | 0
35 | Oc1ccccc1Cc1ccccc1 [1:42, 2-benzylphenol] | 7.1

Same assay, conditions: Escherichia coli, 15 s, read-out: Minimum biocidal concentration (MBC)

Row | Compound | MBC [µg/mL]
36 | C/C=C/c1ccccc1O [(E)-2-(prop-1-enyl)phenol] | 1500 (≈ 11.2 mM)

Same assay, conditions: Escherichia coli, 15 s, read-out: Minimum biocidal concentration (MBC), component alone; lowest tested concentration giving zero bacterial survival after 15 s; upper boundary

Row | Compound | MBC [µg/mL]
37 | Oc1cccc(-c2ccccc2)c1 [3-phenylphenol] | ≥ 1250

Same assay, conditions: Escherichia coli, 15 s; component alone; lowest tested concentration giving zero bacterial survival after 15 s; upper boundary; read-out: Minimum biocidal concentration (MBC)

Row | Compound | MBC [µg/mL]
38 | CC(C)(C)c1cccc(O)c1 [3-tert-butylphenol] | 800 (≈ 5.33 mM)
39 | CCC(C)c1ccc(O)cc1 (centres unmarked) [4-sec-butylphenol] | 800 (≈ 5.33 mM)
40 | CCCCc1ccc(O)cc1 [4-n-butylphenol] | 250 (≈ 1.66 mM)
41 | Cc1ccc(C(C)C)c(O)c1 [Thymol, thymol, reference compound] | 500 (≈ 3.33 mM)

What follows are compounds tested on Escherichia coli (E. coli - ATCC #10536) (assay: Automated assessment of efficacy in surfactant base, 15 seconds exposure, OD450/OD590 readout (Example 4)). Details: cocoyl glycinate and lauroamphoacetate.
Format: cell-based
Description: In these examples, the efficacy of combinations of monosubstituted phenols and terpineol were tested in a surfactant cleansing formulation comprising 2.85% sodium cocoyl glycinate and 1.85% sodium lauroamphoacetate. This corresponds to a 50% in use dilution with water of a typical neat formulation containing 5.7% cocoyl glycinate and 3.7% % sodium lauroamphoacetate during hand washing. Solutions were prepared such that the concentrations of the surfactant components and test actives were 1.1 times the final desired concentration in order to allow for dilution with the bacterial inoculum in the test. The solutions were manually adjusted to pH 10.0 by dropwise addition of sodium hydroxide solution, as measured with a pH meter at ambient temperature. Solutions of the monosubstituted phenols and/or terpineols were prepared at a maximum of 24 hours before testing. The same terpineol was used as in Example 1.
The efficacy of the combinations of the present invention was determined against the same bacterium as in Example 1, Escherichia coli (E. coli—ATCC #10536), at a concentration of approximately 1×10^8 bacteria per mL.
Tests were conducted using standard microtiter plate assays using an automated liquid handling system. 270 μl of the surfactant test solution was pipetted into each well of the microtitre plate (Nunc F Gamma Irradiated 96F untreated microtitre plates of clear polystyrene) and 30 μl of the bacterial suspension was then added. After exactly 15 seconds of bacterial exposure, a 30 μl volume of bacterial cells was withdrawn and transferred to 270 μl of D/E quench solution. After 5 minutes in the D/E quench, the optical density (OD) was measured for each plate in turn at two specific wavelengths (450 nm and 590 nm). These provide a dual check of antimicrobial activity, as the OD450 reading is specific for the yellow colour of D/E quench when bacterial growth is observed, whereas OD590 is specific for the initial purple colour of the D/E quench which is retained if no bacterial growth is observed. After the time zero OD measurements, plates were then incubated at 37° C. overnight (16 hours) before repeating the OD measurements. Delta OD values were calculated by subtracting […] at time=16 hours. Bacterial growth is observed as an increase in OD450 and a decrease in OD590. To identify antibacterially efficacious systems (those preventing appreciable bacterial growth after incubation), the following threshold changes in OD readings have been adopted: if (1). OD450 increases by less than 0.2 absorbance unit (AU) on incubation and (2). OD590 decreases by less than 0.35 AU on incubation. Conversely, where OD450 increases by more than […] after incubation, corresponding to a colour shift from purple to yellow, the test system allows bacterial growth and is not deemed efficacious. Four replicate measurements in the same plate have been made for each test system. The number of replicate wells showing either bacterial growth or no growth is also readily assessed by eye by following the colour change. Thymol and terpineol were tested both alone and in combination for comparison purposes.
In some selected cases, the combinations were also tested at the weight ratio 1:1.
The surfactants used are not themselves antimicrobially active against E. coli at the concentrations employed as shown by the results of Ex. (4:1) in Table 24. Thus, any antimicrobial efficacy can be ascribed to the monosubstituted phenols and/or terpineol. Table 25 presents MBC-values determined similarly as described for Example 1.

Row | Compound | antimicrobial action in combination with terpineol in the presence of surfactant (in words)
42 | CC(C)(C)c1cccc(O)c1 [3-tert-butylphenol] | enhanced antimicrobial action
43 | CCC(C)c1ccc(O)cc1 (centres unmarked) [4-sec-butylphenol] | enhanced antimicrobial action
44 | C/C=C/c1ccccc1O [(E)-2-(prop-1-enyl)phenol] | enhanced antimicrobial action
45 | Oc1cccc(-c2ccccc2)c1 [3-phenylphenol] | enhanced antimicrobial action
46 | CC(C)(C)c1ccc(O)cc1 [4-tert-butylphenol] | enhanced antimicrobial action
47 | CCCCc1ccc(O)cc1 [4-n-butylphenol] | enhanced antimicrobial action
